Test results published in the NIST ThermoML archive (doi:10.1021/je4005323).

Conditions: Liquid; for speed of sound: Pulse-echo method; for mass density: Vibrating tube method

CCCCCCCC/C=C\CCCCCCCC(=O)OC [methyl cis-9-octadecenoate]
Conditions | mass density [kg/m3] | speed of sound [m/s]
283.15 K, 101.3 kPa | – | 1443.2
283.15 K, 10000 kPa | – | 1486.1
283.15 K, 20000 kPa | – | 1526.5
283.15 K, 30000 kPa | – | 1564.5
283.15 K, 40000 kPa | – | 1600.5
283.15 K, 50000 kPa | – | 1634.5
283.15 K, 60000 kPa | – | 1668.6
283.15 K, 70000 kPa | – | 1701
283.15 K, 80000 kPa | – | 1732.7
283.15 K, 90000 kPa | – | 1762.7
283.15 K, 100000 kPa | – | 1790.8
283.15 K, 110000 kPa | – | 1819.3
283.15 K, 120000 kPa | – | 1846
283.15 K, 130000 kPa | – | 1872.5
283.15 K, 140000 kPa | – | 1897.8
283.15 K, 150000 kPa | – | 1923.3
283.15 K, 160000 kPa | – | 1947.8
283.15 K, 170000 kPa | – | 1971.2
283.15 K, 180000 kPa | – | 1994.3
283.15 K, 190000 kPa | – | 2016.8
283.15 K, 200000 kPa | – | 2036.4
293.15 K, 101.3 kPa | 873.8 | –
293.15 K, 10000 kPa | 880 | –
293.15 K, 20000 kPa | 885.3 | –
293.15 K, 30000 kPa | 890.6 | –
293.15 K, 40000 kPa | 895.5 | –
293.15 K, 50000 kPa | 900.1 | –
293.15 K, 60000 kPa | 904.5 | –
293.15 K, 70000 kPa | 908.9 | –
293.15 K, 80000 kPa | 912.6 | –
293.15 K, 90000 kPa | 916.9 | –
293.15 K, 100000 kPa | 920.7 | –
303.15 K, 101.3 kPa | 866.3 | 1370.5
303.15 K, 10000 kPa | 872.8 | 1416.8
303.15 K, 20000 kPa | 878.4 | 1460
303.15 K, 30000 kPa | 883.9 | 1502
303.15 K, 40000 kPa | 888.9 | 1540.9
303.15 K, 50000 kPa | 893.7 | 1578.3
303.15 K, 60000 kPa | 898.3 | 1613.7
303.15 K, 70000 kPa | 902.7 | 1647
303.15 K, 80000 kPa | 906.9 | 1678.8
303.15 K, 90000 kPa | 910.9 | 1709.5
303.15 K, 100000 kPa | 915.4 | 1739.7
303.15 K, 110000 kPa | – | 1768.5
303.15 K, 120000 kPa | – | 1796.4
303.15 K, 130000 kPa | – | 1821.2
303.15 K, 140000 kPa | – | 1848.1
303.15 K, 150000 kPa | – | 1874.2
303.15 K, 160000 kPa | – | 1899
303.15 K, 170000 kPa | – | 1923.1
303.15 K, 180000 kPa | – | 1947
303.15 K, 190000 kPa | – | 1970.3
303.15 K, 200000 kPa | – | 1992.7
313.15 K, 101.3 kPa | 859.6 | –
313.15 K, 10000 kPa | 865.8 | –
313.15 K, 20000 kPa | 871.7 | –
313.15 K, 30000 kPa | 877.5 | –
313.15 K, 40000 kPa | 882.5 | –
313.15 K, 50000 kPa | 887.5 | –
313.15 K, 60000 kPa | 892.2 | –
313.15 K, 70000 kPa | 896.7 | –
313.15 K, 80000 kPa | 901.2 | –
313.15 K, 90000 kPa | 905.2 | –
313.15 K, 100000 kPa | 909.7 | –
323.15 K, 101.3 kPa | 852.4 | 1301.9
323.15 K, 10000 kPa | 858.9 | 1352.1
323.15 K, 20000 kPa | 865.1 | 1397.7
323.15 K, 30000 kPa | 870.9 | 1441.1
323.15 K, 40000 kPa | 876.1 | 1482.3
323.15 K, 50000 kPa | 881.1 | 1521.2
323.15 K, 60000 kPa | 886.2 | 1558.5
323.15 K, 70000 kPa | 891 | 1593.5
323.15 K, 80000 kPa | 895.5 | 1627.2
323.15 K, 90000 kPa | 899.7 | 1659.3
323.15 K, 100000 kPa | 904.1 | 1690.2
323.15 K, 110000 kPa | – | 1719.3
323.15 K, 120000 kPa | – | 1747.7
323.15 K, 130000 kPa | – | 1775.4
323.15 K, 140000 kPa | – | 1801.6
323.15 K, 150000 kPa | – | 1827.1
323.15 K, 160000 kPa | – | 1853
323.15 K, 170000 kPa | – | 1878.4
323.15 K, 180000 kPa | – | 1902.6
323.15 K, 190000 kPa | – | 1925.8
323.15 K, 200000 kPa | – | 1949.2
333.15 K, 101.3 kPa | 844.8 | –
333.15 K, 10000 kPa | 851.7 | –
333.15 K, 20000 kPa | 858.3 | –
333.15 K, 30000 kPa | 864.2 | –
333.15 K, 40000 kPa | 869.7 | –
333.15 K, 50000 kPa | 875 | –
333.15 K, 60000 kPa | 880.1 | –
333.15 K, 70000 kPa | 884.9 | –
333.15 K, 80000 kPa | 889.4 | –
333.15 K, 90000 kPa | 893.9 | –
333.15 K, 100000 kPa | 898.2 | –
343.15 K, 101.3 kPa | 837.8 | 1235.8
343.15 K, 10000 kPa | 845.2 | 1289
343.15 K, 20000 kPa | 851.9 | 1338.1
343.15 K, 30000 kPa | 858.1 | 1383.7
343.15 K, 40000 kPa | 864 | 1426
343.15 K, 50000 kPa | 869.5 | 1466.7
343.15 K, 60000 kPa | 874.6 | 1505.4
343.15 K, 70000 kPa | 879.5 | 1542.2
343.15 K, 80000 kPa | 884.4 | 1575.4
343.15 K, 90000 kPa | 889 | 1609.4
343.15 K, 100000 kPa | 893.4 | 1641.6
343.15 K, 110000 kPa | – | 1672.6
343.15 K, 120000 kPa | – | 1701.9
343.15 K, 130000 kPa | – | 1729.9
343.15 K, 140000 kPa | – | 1757.3
343.15 K, 150000 kPa | – | 1783.8
343.15 K, 160000 kPa | – | 1809.7
343.15 K, 170000 kPa | – | 1834.3
343.15 K, 180000 kPa | – | 1859.7
343.15 K, 190000 kPa | – | 1883.4
343.15 K, 200000 kPa | – | 1905.8
353.15 K, 101.3 kPa | 830.4 | –
353.15 K, 10000 kPa | 838 | –
353.15 K, 20000 kPa | 845.1 | –
353.15 K, 30000 kPa | 851.5 | –
353.15 K, 40000 kPa | 857.5 | –
353.15 K, 50000 kPa | 863.3 | –
353.15 K, 60000 kPa | 868.7 | –
353.15 K, 70000 kPa | 873.8 | –
353.15 K, 80000 kPa | 878.7 | –
353.15 K, 90000 kPa | 883.6 | –
353.15 K, 100000 kPa | 888.2 | –
363.15 K, 101.3 kPa | 823.2 | 1170.9
363.15 K, 10000 kPa | 831.3 | 1228.2
363.15 K, 20000 kPa | 838.7 | 1280.6
363.15 K, 30000 kPa | 845.5 | 1329.3
363.15 K, 40000 kPa | 851.8 | 1374
363.15 K, 50000 kPa | 857.7 | 1414.4
363.15 K, 60000 kPa | 863.1 | 1454.6
363.15 K, 70000 kPa | 868.4 | 1492.2
363.15 K, 80000 kPa | 873.3 | 1527.5
363.15 K, 90000 kPa | 878.1 | 1563.5
363.15 K, 100000 kPa | 882.9 | 1597.2
363.15 K, 110000 kPa | – | 1629.1
363.15 K, 120000 kPa | – | 1659.3
363.15 K, 130000 kPa | – | 1687.5
363.15 K, 140000 kPa | – | 1715.4
363.15 K, 150000 kPa | – | 1741.8
363.15 K, 160000 kPa | – | 1766.9
363.15 K, 170000 kPa | – | 1793.1
363.15 K, 180000 kPa | – | 1817.7
363.15 K, 190000 kPa | – | 1841.2
363.15 K, 200000 kPa | – | 1864.9
373.15 K, 101.3 kPa | 815.8 | –
373.15 K, 10000 kPa | 824.2 | –
373.15 K, 20000 kPa | 832 | –
373.15 K, 30000 kPa | 839.1 | –
373.15 K, 40000 kPa | 845.7 | –
373.15 K, 50000 kPa | 851.8 | –
373.15 K, 60000 kPa | 857.5 | –
373.15 K, 70000 kPa | 862.9 | –
373.15 K, 80000 kPa | 868.2 | –
373.15 K, 90000 kPa | 873 | –
373.15 K, 100000 kPa | 878.1 | –
383.15 K, 101.3 kPa | 808.4 | 1108.9
383.15 K, 10000 kPa | 817.4 | 1170.4
383.15 K, 20000 kPa | 825.5 | 1226.5
383.15 K, 30000 kPa | 832.7 | 1277.8
383.15 K, 40000 kPa | 839.5 | 1324.6
383.15 K, 50000 kPa | 845.9 | 1367.4
383.15 K, 60000 kPa | 851.8 | 1407.7
383.15 K, 70000 kPa | 857.5 | 1446.1
383.15 K, 80000 kPa | 862.8 | 1481.7
383.15 K, 90000 kPa | 867.9 | 1516.9
383.15 K, 100000 kPa | 873.2 | 1550.2
383.15 K, 110000 kPa | – | 1583.4
383.15 K, 120000 kPa | – | 1615.8
383.15 K, 130000 kPa | – | 1645.9
383.15 K, 140000 kPa | – | 1674.2
383.15 K, 150000 kPa | – | 1701.5
383.15 K, 160000 kPa | – | 1729.4
383.15 K, 170000 kPa | – | 1755.3
383.15 K, 180000 kPa | – | 1781.4
383.15 K, 190000 kPa | – | 1805.7
383.15 K, 200000 kPa | – | 1828.3
393.15 K, 101.3 kPa | 800.8 | 1078.5
393.15 K, 10000 kPa | 810.2 | 1142.4
393.15 K, 20000 kPa | 818.5 | 1200
393.15 K, 30000 kPa | 826.2 | 1252
393.15 K, 40000 kPa | 833.2 | 1299.9
393.15 K, 50000 kPa | 839.6 | 1343.8
393.15 K, 60000 kPa | 845.7 | 1384.5
393.15 K, 70000 kPa | 851.7 | 1423.6
393.15 K, 80000 kPa | 857.2 | 1460.2
393.15 K, 90000 kPa | 862.4 | 1495.7
393.15 K, 100000 kPa | 867.6 | 1529.7
393.15 K, 110000 kPa | – | 1562.8
393.15 K, 120000 kPa | – | 1593.9
393.15 K, 130000 kPa | – | 1624.5
393.15 K, 140000 kPa | – | 1654.6
393.15 K, 150000 kPa | – | 1683
393.15 K, 160000 kPa | – | 1710.3
393.15 K, 170000 kPa | – | 1736.2
393.15 K, 180000 kPa | – | 1761.2
393.15 K, 190000 kPa | – | 1785.3
393.15 K, 200000 kPa | – | 1809.7
